Assay results published in ChEMBL document CHEMBL5046256, “The discovery of potent small molecule cyclic urea activators of STING” (Eur J Med Chem, 2022).
Activity calls are given as the source filed them. The calls are words filed in the database; no cut-off is given here.

Columns and labels:
Format in all cases: cell-based
[1] = Agonist activity against human STING R232H variant transfected in HEK-293T cells co-expressing ISRE.ISG54 by luciferase reporter gene assay
HEK-293T [2] = assay: Agonist activity against human STING R232H variant transfected in HEK-293T cells co-expressing ISRE.ISG54 at 1 uM by luciferase reporter gene assay relative to control
HEK-293T [3] = assay: Agonist activity against human STING R232H variant transfected in HEK-293T cells co-expressing ISRE.ISG54 at 5 uM by luciferase reporter gene assay relative to control

Compound	EC50 ([1]; Homo sapiens, HEK-293T) [nM]	Activity (HEK-293T [3])	also measured
Cc1cc(CN2C(=O)N(C)C(C)c3ccc(C(=O)NCc4c(F)cc(F)cc4F)cc32)ccn1 (stereo in doubt; 74)	–	–	EC50 ([1]; hek-293t): 816 nM
C[C@@H]1c2ccc(C(=O)NCc3c(F)cc(F)cc3F)cc2N(Cc2c(F)cccc2Cl)C(=O)N1C	2600	–	–
Cc1ccc(Cl)c(CN2C(=O)N(C)[C@@H](C)c3ccc(C(=O)NCc4c(F)cc(F)cc4F)cc32)c1F	38	–	–
CN1Cc2ccc(C(=O)NCc3c(F)cc(F)cc3F)cc2N(Cc2ccccc2F)C1=O	191	–	–
O=C(NCc1c(F)cc(F)cc1F)c1ccc2c(c1)N(Cc1cc(F)cc(F)c1)C(=O)NC2	2340	–	–
CN1Cc2ccc(C(=O)NCc3c(F)cc(F)cc3F)cc2N(Cc2c(F)cccc2C#N)C1=O	–	–	Activity (HEK-293T [2]): 15%
CN1Cc2ccc(C(=O)NCc3cccc(-c4ncco4)c3)cc2N(Cc2c(F)cccc2Cl)C1=O	–	inactive	–
Cc1ccc(CN2C(=O)N(C)[C@@H](C)c3ccc(C(=O)NCc4c(F)cc(F)cc4F)cc32)c(F)c1	135	–	–
Cc1cc(CN2C(=O)N(C)C(C)c3ccc(C(=O)NCc4c(F)cc(F)cc4F)cc32)ccn1 (racemic) [listing 1 of 2 here]	–	–	EC50 ([1]; hek-293t): 247 nM
CC1c2ccc(C(=O)NCc3c(F)cc(F)cc3F)cc2N(Cc2ccccc2F)C(=O)N1C (racemic)	153	–	–
CN1Cc2ncc(C(=O)NCc3c(F)cc(F)cc3F)cc2N(Cc2cc(F)cc(F)c2)C1=O	–	19%	–
CN1Cc2ccc(C(=O)NCc3c(F)cc(F)cc3F)cc2N(Cc2ccccc2)C1=O	980	–	–
CC1c2ccc(C(=O)NCc3c(F)cc(F)cc3F)cc2N(Cc2c(F)cccc2Cl)C(=O)N1C (stereo not given)	29	–	–
CN1Cc2ccc(C(=O)NCc3c(F)cc(F)cc3F)cc2N(Cc2ccccc2Cl)C1=O	–	–	Activity (HEK-293T [3]; filed as agonist): 76%
CN1Cc2ccc(C(=O)NCc3ccc(F)cc3F)cc2N(Cc2cc(F)cc(F)c2)C1=O	450	–	–
CC1c2ccc(C(=O)NCc3c(F)cc(F)cc3F)cc2N(Cc2c(F)cccc2S(C)(=O)=O)C(=O)N1C (stereo not given)	–	–	Activity (HEK-293T [2]; filed as agonist): 61%
C[C@H]1c2ccc(C(=O)NCc3c(F)cc(F)cc3F)cc2N(Cc2c(F)ccc(F)c2Cl)C(=O)N1C	36	–	–
O=C(NCc1c(F)cc(F)cc1F)c1ccc2c(c1)N(Cc1cc(F)cc(F)c1)C(=O)N(C1CC1)C2	–	13%	–
Cc1ccc(CNC(=O)c2ccc3c(c2)N(Cc2cc(F)cc(F)c2)C(=O)N(C)C3)o1	–	16%	–
CN1Cc2ccc(C(=O)NCc3ccc4c(c3)CC(=O)N4)cc2N(Cc2c(F)cccc2Cl)C1=O	–	2%	–
CN1Cc2ccc(C(=O)NCc3ccc4c(c3)NCCO4)cc2N(Cc2c(F)cccc2Cl)C1=O	–	inactive	–

Compound	EC50 ([1]; Homo sapiens, HEK-293T) [nM]	Activity (HEK-293T [3])	also measured
Cc1cc(CN2C(=O)N(C)Cc3ccc(C(=O)NCc4c(F)cc(F)cc4F)cc32)no1	–	–	Activity (HEK-293T [3]; filed as agonist): 68%
CN1Cc2ccc(C(=O)NCc3cccc4c3OCO4)cc2N(Cc2c(F)cccc2Cl)C1=O	–	4%	–
CN1Cc2ccc(CNCc3c(F)cc(F)cc3F)cc2N(Cc2c(F)cccc2Cl)C1=O	–	3%	–
Cc1ccc(Cl)c(CN2C(=O)N(C)Cc3ccc(C(=O)NCc4c(F)cc(F)cc4F)cc32)c1F	403	–	Activity (HEK-293T [3]; filed as agonist): 68%
COc1cccc(F)c1CN1C(=O)N(C)Cc2ccc(C(=O)NCc3c(F)cc(F)cc3F)cc21	248	–	–
C[C@H]1c2ccc(C(=O)NCc3c(F)cc(F)cc3F)cc2N(Cc2ncccc2F)C(=O)N1C	1040	–	–
CON1Cc2ccc(C(=O)NCc3c(F)cc(F)cc3F)cc2N(Cc2c(F)cccc2Cl)C1=O	–	–	Activity (HEK-293T [3]; filed as agonist): 82%
Cc1cccc(CN2C(=O)N(C)Cc3ccc(C(=O)NCc4c(F)cc(F)cc4F)cc32)c1F	369	–	–
CN1Cc2ccc(C(=O)NCc3cccc(C(=O)N4CCCC4)c3)cc2N(Cc2c(F)cccc2Cl)C1=O	–	inactive	–
CN1Cc2ncc(C(=O)NCc3c(F)cc(F)cc3F)cc2N(Cc2c(F)cccc2Cl)C1=O	–	–	Activity (HEK-293T [3]; filed as agonist): 76%
Cc1ccc(F)c(CN2C(=O)N(C)C(C)c3ccc(C(=O)NCc4c(F)cc(F)cc4F)cc32)n1 (stereo not given)	–	–	Activity (HEK-293T [2]; filed as agonist): 60%
CC1c2ccc(C(=O)NCc3c(F)cc(F)cc3F)cc2N(Cc2cc(C(N)=O)ccc2F)C(=O)N1C (stereo not given)	–	–	Activity (HEK-293T [2]; filed as agonist): 71%
CN1Cc2ccc(C(=O)NCc3cccc(N4CCCC4=O)c3)cc2N(Cc2c(F)cccc2Cl)C1=O	–	inactive	–
Cc1cc(CN2C(=O)N(C)C(C)c3ccc(C(=O)NCc4c(F)cc(F)cc4F)cc32)ccn1 (racemic) [listing 2 of 2 here]	–	–	Activity (HEK-293T [3]; filed as agonist): 61%
CC1c2ccc(C(=O)NCc3c(F)cc(F)cc3F)cc2N(Cc2ccc(Cl)cc2F)C(=O)N1C (stereo not given)	–	–	Activity (HEK-293T [2]; filed as agonist): 65%
CC1c2ccc(C(=O)NCc3c(F)cc(F)cc3F)cc2N(Cc2cc(F)cc(F)c2)C(=O)N1C (racemic)	–	–	EC50 ([1]; hek-293t): 470 nM
CN1Cc2ccc(C(=O)NCc3ccccc3F)cc2N(Cc2c(F)cccc2Cl)C1=O	–	–	Activity (HEK-293T [2]): 34%
CN1Cc2ccc(C(=O)NCc3c(F)cc(F)cc3F)cc2N(Cc2ccc(F)cc2)C1=O	196	–	–
CN1Cc2ccc(C(=O)NCc3cc4ccccc4o3)cc2N(Cc2cc(F)cc(F)c2)C1=O	2260	–	–
CC1c2ccc(C(=O)NCc3c(F)cc(F)cc3F)cc2N(Cc2c(F)cccc2F)C(=O)N1C (racemic)	–	–	EC50 ([1]; hek-293t): 21 nM
CC1c2ccc(C(=O)NCc3c(F)cc(F)cc3F)cc2N(Cc2cc(F)cc(F)c2)C(=O)N1C (stereo in doubt; 68)	–	–	EC50 ([1]; hek-293t): 117 nM

Compound	EC50 ([1]; Homo sapiens, HEK-293T) [nM]	Activity (HEK-293T [3])	also measured
CN1Cc2ccc(C(=O)NCc3c(F)cc(F)cc3F)cc2N(Cc2ccnn2C)C1=O	–	7%	–
C[C@H]1c2ccc(C(=O)NCc3c(F)cc(F)cc3F)cc2N(Cc2c(Cl)cn(C)c(=O)c2F)C(=O)N1C	1760	–	–
CN1Cc2ccc(C(=O)NCc3cccc(-n4cccn4)c3)cc2N(Cc2c(F)cccc2Cl)C1=O	–	inactive	–
CC1c2ccc(C(=O)NCc3c(F)cc(F)cc3F)cc2N(Cc2ccc(F)cc2)C(=O)N1C (stereo not given)	200	–	–
Cn1cnc(N2Cc3ccc(C(=O)NCc4c(F)cc(F)cc4F)cc3N(Cc3c(F)cccc3Cl)C2=O)c1	–	inactive	–
CC1c2ccc(C(=O)NCc3c(F)cc(F)cc3F)cc2N(Cc2ccncc2F)C(=O)N1C (stereo not given)	388	–	–
Cc1ncc(Cl)c(CN2C(=O)N(C)C(C)c3ccc(C(=O)NCc4c(F)cc(F)cc4F)cc32)c1F (stereo not given)	39	–	–
CC1c2ccc(C(=O)NCc3c(F)cc(F)cc3F)cc2N(Cc2c(F)cccc2F)C(=O)N1C (stereo in doubt; 72)	–	–	EC50 ([1]; hek-293t): 51 nM
CN1Cc2ccc(C(=O)NCc3c(F)cc(F)cc3F)cc2N(Cc2c(F)cccc2Cl)C1=O	133	–	–
CN1Cc2ccc(C(=O)NCc3c(F)cc(F)cc3F)cc2N(Cc2cn3ccccc3n2)C1=O	–	16%	–
Cc1nc(CN2C(=O)N(C)Cc3ccc(C(=O)NCc4c(F)cc(F)cc4F)cc32)co1	–	13%	–
CC1c2ccc(C(=O)NCc3c(F)cc(F)cc3F)cc2N(Cc2c(F)cccc2C(F)(F)F)C(=O)N1C (stereo not given)	181	–	–
CN1Cc2ccc(C(=O)NCc3cccc(N4CCOCC4)c3)cc2N(Cc2c(F)cccc2Cl)C1=O	–	inactive	–
CN1Cc2ccc(C(=O)NCc3ccc(N4CCCC4=O)cc3)cc2N(Cc2c(F)cccc2Cl)C1=O	–	inactive	–
Cc1cccc(CN2C(=O)N(C)C(C)c3ccc(C(=O)NCc4c(F)cc(F)cc4F)cc32)c1F (stereo not given)	91	–	–
CN1Cc2ccc(C(=O)NCc3cnc(-c4ccccc4)s3)cc2N(Cc2c(F)cccc2Cl)C1=O	–	inactive	–
CN1Cc2ccc(C(=O)NCc3c(F)cc(F)cc3F)cc2N(Cc2cccc(C(N)=O)c2)C1=O	–	–	Activity (HEK-293T [3]; filed as agonist): 57%
O=C(NCc1c(F)cc(F)cc1F)c1ccc2c(c1)N(Cc1c(F)cccc1Cl)C(=O)N(O)C2	–	8%	–
CN1Cc2ccc(C(=O)NCc3ccc4ccoc4c3)cc2N(Cc2c(F)cccc2Cl)C1=O	–	–	Activity (HEK-293T [3]; filed as agonist): 84%
C[C@H]1c2ccc(C(=O)NCc3c(F)cc(F)cc3F)cc2N(Cc2c(F)cncc2F)C(=O)N1C	169	–	–
CC1c2ccc(C(=O)NCc3c(F)cc(F)cc3F)cc2N(Cc2ccccc2F)C(=O)N1C (stereo in doubt; 98)	–	–	EC50 ([1]; hek-293t): 122 nM

Compound	EC50 ([1]; Homo sapiens, HEK-293T) [nM]	Activity (HEK-293T [3])	also measured
C[C@H]1c2ccc(C(=O)NCc3c(F)cc(F)cc3F)cc2N(Cc2c(Cl)c[nH]c(=O)c2F)C(=O)N1C	–	16%	–
CN1Cc2ccc(C(=O)NCc3c(F)cc(F)cc3F)cc2N(Cc2cn(C)cn2)C1=O	–	7%	–
Cc1cccc(F)c1CN1C(=O)N(C)C(C)c2ccc(C(=O)NCc3c(F)cc(F)cc3F)cc21 (stereo not given)	41	–	–
CN1Cc2ccc(C(=O)NCc3c(F)cc(F)cc3F)cc2N(Cc2ccncc2)C1=O	3340	–	–
Cc1ncc(Cl)c(CN2C(=O)N(C)[C@@H](C)c3ccc(C(=O)NCc4c(F)cc(F)cc4F)cc32)c1F	37	–	–
CN1Cc2ccc(C(=O)NCc3c(F)cc(F)cc3F)cc2N(Cc2cc(F)cc(F)c2)C1=O	274	–	–
Cc1cccc(CN2C(=O)N(C)[C@@H](C)c3ccc(C(=O)NCc4c(F)cc(F)cc4F)cc32)c1F	47	–	–
Cc1nccc(CN2C(=O)N(C)[C@@H](C)c3ccc(C(=O)NCc4c(F)cc(F)cc4F)cc32)c1F	47	–	–
Cc1cc(CN2C(=O)N(C)Cc3ccc(C(=O)NCc4c(F)cc(F)cc4F)cc32)nn1C	–	14%	–
CN1Cc2ccc(C(=O)NCc3ccc4occc4c3)cc2N(Cc2c(F)cccc2Cl)C1=O	–	–	Activity (HEK-293T [3]; filed as agonist): 70%
Cc1ccc(Cl)c(CN2C(=O)N(C)C(C)c3ccc(C(=O)NCc4c(F)cc(F)cc4F)cc32)c1F (stereo not given)	60	–	–
Cc1nccc(CN2C(=O)N(C)C(C)c3ccc(C(=O)NCc4c(F)cc(F)cc4F)cc32)c1F (stereo not given)	134	–	–
CN1Cc2ccc(C(=O)NCc3ccc(C(F)(F)F)nc3)cc2N(Cc2c(F)cccc2Cl)C1=O	–	inactive	–
CC1c2ccc(C(=O)NCc3c(F)cc(F)cc3F)cc2N(Cc2ccccc2)C(=O)N1C (stereo not given)	270	–	–
Cc1cccc(F)c1CN1C(=O)N(C)Cc2ccc(C(=O)NCc3c(F)cc(F)cc3F)cc21	317	–	–
Cc1ncc(CN2C(=O)N(C)Cc3ccc(C(=O)NCc4c(F)cc(F)cc4F)cc32)s1	1710	–	–
CC1c2ccc(C(=O)NCc3c(F)cc(F)cc3F)cc2N(Cc2ccc(F)cc2Cl)C(=O)N1C (stereo not given)	–	25%	–
CN1Cc2ccc(C(=O)NCc3c(F)cc(F)cc3F)cc2N(Cc2ccc(F)cc2F)C1=O	204	–	–
CC1c2ccc(C(=O)NCc3c(F)cc(F)cc3F)cc2N(Cc2c(F)cc(Cl)cc2F)C(=O)N1C (stereo not given)	157	–	–
CN1Cc2ccc(C(=O)NCc3cccc(-n4cncn4)c3)cc2N(Cc2c(F)cccc2Cl)C1=O	–	inactive	–
CN1Cc2ccc(C(=O)NCc3ccc4cnn(C)c4c3)cc2N(Cc2c(F)cccc2Cl)C1=O	–	inactive	–
